Measured values as given in patent EP4745135A1 (Gluetacs Therapeutics (Shanghai) Co., Ltd., priority 2023, dated 2025).

Experiments:
CK1α = molecular target: T1, CK1α (Homo sapiens, UniProt P48729+Q96SW2); assay: Western blot, degradation of substrate protein in hPBMCs; type: cell-based
T1 construct: effects of the compounds of the present disclosure on the expression of target proteins in cells; endogenous in cells; host or cells: human PBMCs (Milecell Biotechnologies)

IKZF1 = molecular target: T2, IKZF1 (Homo sapiens, UniProt Q13422+Q96SW2); assay: as above; type: cell-based
T2 construct: effects of the compounds of the present disclosure on the expression of target proteins in cells; endogenous in cells; host or cells: human PBMCs (Milecell Biotechnologies)

IKZF2 = molecular target: T3, IKZF2 (Homo sapiens, UniProt Q96SW2+Q9UKS7); assay: as above; type: cell-based
T3 construct: effects of the compounds of the present disclosure on the expression of target proteins in cells; endogenous in cells; host or cells: human PBMCs (Milecell Biotechnologies)

IKZF3 = molecular target: T4, IKZF3 (Homo sapiens, UniProt Q96SW2+Q9UKT9); assay: as above; type: cell-based
T4 construct: effects of the compounds of the present disclosure on the expression of target proteins in cells; endogenous in cells; host or cells: human PBMCs (Milecell Biotechnologies)

WEE1 = molecular target: T5, WEE1 (Homo sapiens, UniProt P30291+Q96SW2); assay: as above; type: cell-based
T5 construct: effects of the compounds of the present disclosure on the expression of target proteins in cells; endogenous in cells; host or cells: human PBMCs (Milecell Biotechnologies)

GSPT1 = assay: as above; type: cell-based, Human
[1] = molecular target: T6, human Cereblon WT GST-tagged protein (Homo sapiens, UniProt Q96SW2); assay: CRBN-binding affinity, HTRF (CEREBLON BINDING kit); details: for inhibition at 0.5 µM: read-out: Inhibition Rate at 0.5 µM (%); for inhibition at 2 µM: read-out: Inhibition Rate at 2 µM (%)
T6 construct: purchased CISBIO 64BDCRBNPEH

[2] = system: Human multiple myeloma cell (MM.1S); assay: Tumor cell proliferation inhibition (CellTiter-Meiluncell luminescent cell viability assay); details: Homo sapiens, MM1.S, 96 h; for inhibition at 0.01 µM: read-out: Inhibition Rate at 10 nM (%); for inhibition at 0.5 µM: read-out: Inhibition Rate at 500 nM (%)
[3] = system: Human myeloid monocytic leukemia cell (MV-4-11); assay: as above; details: MV4-11, 96 h; for inhibition at 0.01 µM: read-out: Inhibition Rate at 10 nM (%); for inhibition at 0.5 µM: read-out: Inhibition Rate at 500 nM (%)
[4] = Western blot, 24 hours of compound treatment, compounds tested at 50 nM and 500 nM (concentration for the table not stated)
[5] = 24 hours treatment, compounds at 50 nM and 500 nM (concentration behind the class not stated)

T2 sequence (Q13422 whole entry): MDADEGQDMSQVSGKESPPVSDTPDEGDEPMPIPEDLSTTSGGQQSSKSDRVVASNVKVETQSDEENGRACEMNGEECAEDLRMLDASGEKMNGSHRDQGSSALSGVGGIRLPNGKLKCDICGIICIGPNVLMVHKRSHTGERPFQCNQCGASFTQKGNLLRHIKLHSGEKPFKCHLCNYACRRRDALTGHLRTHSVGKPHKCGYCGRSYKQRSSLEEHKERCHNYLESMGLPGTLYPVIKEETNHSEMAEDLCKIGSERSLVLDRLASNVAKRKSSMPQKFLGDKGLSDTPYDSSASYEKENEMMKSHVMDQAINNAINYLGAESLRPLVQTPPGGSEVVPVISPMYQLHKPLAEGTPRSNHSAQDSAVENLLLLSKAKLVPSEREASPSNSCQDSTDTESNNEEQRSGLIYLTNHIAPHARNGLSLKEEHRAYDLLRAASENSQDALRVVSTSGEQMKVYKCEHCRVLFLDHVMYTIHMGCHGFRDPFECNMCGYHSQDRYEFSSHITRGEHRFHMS
T2 sequence (Q96SW2 whole entry): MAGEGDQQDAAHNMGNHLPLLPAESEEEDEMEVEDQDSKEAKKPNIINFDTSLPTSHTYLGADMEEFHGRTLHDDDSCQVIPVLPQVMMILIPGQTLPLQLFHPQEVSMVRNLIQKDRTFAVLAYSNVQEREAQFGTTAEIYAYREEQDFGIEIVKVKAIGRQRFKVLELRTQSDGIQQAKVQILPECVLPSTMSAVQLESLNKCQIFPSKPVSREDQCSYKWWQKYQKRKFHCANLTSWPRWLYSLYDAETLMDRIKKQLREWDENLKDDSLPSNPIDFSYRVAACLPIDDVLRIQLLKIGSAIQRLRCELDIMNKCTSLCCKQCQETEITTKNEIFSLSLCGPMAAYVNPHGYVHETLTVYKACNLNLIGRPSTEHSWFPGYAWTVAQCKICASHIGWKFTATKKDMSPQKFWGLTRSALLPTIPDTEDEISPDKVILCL
T2 sequence (Q16531 whole entry partner): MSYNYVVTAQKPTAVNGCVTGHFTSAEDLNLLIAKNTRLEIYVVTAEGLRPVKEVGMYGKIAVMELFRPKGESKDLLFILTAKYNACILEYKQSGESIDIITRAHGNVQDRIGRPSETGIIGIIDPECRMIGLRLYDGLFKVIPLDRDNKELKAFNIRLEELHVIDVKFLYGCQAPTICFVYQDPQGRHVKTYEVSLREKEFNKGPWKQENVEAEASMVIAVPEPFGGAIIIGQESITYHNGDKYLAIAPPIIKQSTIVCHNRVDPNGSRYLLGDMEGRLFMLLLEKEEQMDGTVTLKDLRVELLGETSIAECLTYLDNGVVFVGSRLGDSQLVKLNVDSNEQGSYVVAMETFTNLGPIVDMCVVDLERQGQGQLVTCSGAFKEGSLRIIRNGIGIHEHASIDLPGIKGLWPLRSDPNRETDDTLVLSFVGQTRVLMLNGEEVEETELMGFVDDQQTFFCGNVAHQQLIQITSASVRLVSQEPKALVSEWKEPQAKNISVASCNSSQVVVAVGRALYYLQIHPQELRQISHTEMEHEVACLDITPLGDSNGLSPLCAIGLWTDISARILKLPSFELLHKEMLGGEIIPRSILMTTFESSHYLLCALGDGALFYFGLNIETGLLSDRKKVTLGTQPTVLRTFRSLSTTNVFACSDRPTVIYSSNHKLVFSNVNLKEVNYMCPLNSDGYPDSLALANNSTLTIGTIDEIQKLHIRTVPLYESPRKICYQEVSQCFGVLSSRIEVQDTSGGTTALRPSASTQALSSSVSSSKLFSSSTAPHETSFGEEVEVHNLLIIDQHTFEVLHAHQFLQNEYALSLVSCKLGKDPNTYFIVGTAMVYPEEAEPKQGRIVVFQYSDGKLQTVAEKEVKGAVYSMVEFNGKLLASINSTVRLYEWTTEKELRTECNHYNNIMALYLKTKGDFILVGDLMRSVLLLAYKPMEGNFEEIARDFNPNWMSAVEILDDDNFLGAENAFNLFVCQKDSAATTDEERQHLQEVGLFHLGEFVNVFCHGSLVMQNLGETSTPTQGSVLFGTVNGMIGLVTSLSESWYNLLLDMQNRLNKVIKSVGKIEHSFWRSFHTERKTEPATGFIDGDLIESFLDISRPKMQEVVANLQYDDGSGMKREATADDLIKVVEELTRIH
T3 sequence (Q9UKS7 whole entry): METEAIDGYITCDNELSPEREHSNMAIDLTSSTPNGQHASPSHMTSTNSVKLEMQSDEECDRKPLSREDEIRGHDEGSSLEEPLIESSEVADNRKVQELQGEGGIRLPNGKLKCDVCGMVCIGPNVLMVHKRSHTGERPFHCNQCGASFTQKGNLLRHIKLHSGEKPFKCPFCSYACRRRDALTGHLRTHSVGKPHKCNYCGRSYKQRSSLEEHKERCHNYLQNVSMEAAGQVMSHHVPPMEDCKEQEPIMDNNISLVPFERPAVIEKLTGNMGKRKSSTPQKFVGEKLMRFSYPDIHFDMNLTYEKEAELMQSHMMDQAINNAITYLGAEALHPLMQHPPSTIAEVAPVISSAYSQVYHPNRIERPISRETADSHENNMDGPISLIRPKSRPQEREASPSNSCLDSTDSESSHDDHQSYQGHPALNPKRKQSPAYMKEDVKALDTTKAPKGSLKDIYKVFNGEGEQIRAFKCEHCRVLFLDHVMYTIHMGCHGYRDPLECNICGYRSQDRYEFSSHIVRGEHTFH
T3 sequence (Q96SW2 whole entry): as the sequence (Q96SW2 whole entry) above
T3 sequence (Q16531 whole entry partner): as the sequence (Q16531 whole entry partner) above
T4 sequence (Q9UKT9 whole entry): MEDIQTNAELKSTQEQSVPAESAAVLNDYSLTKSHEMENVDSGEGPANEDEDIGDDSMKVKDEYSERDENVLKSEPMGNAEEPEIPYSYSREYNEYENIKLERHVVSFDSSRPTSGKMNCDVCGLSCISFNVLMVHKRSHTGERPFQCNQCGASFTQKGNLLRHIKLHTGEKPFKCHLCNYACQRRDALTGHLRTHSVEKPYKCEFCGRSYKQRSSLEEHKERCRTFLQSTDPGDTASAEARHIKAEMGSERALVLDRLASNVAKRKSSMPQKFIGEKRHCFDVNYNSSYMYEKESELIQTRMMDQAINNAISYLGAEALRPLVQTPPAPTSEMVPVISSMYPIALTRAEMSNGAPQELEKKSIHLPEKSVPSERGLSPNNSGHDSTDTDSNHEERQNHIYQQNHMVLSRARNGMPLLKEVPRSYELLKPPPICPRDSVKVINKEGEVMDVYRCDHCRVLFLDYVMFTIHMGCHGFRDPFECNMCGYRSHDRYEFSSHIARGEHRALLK
T4 sequence (Q96SW2 whole entry): as the sequence (Q96SW2 whole entry) above
T4 sequence (Q16531 whole entry partner): as the sequence (Q16531 whole entry partner) above
T6 sequence (Q96SW2 whole entry): as the sequence (Q96SW2 whole entry) above
T5 sequence (P30291 whole entry): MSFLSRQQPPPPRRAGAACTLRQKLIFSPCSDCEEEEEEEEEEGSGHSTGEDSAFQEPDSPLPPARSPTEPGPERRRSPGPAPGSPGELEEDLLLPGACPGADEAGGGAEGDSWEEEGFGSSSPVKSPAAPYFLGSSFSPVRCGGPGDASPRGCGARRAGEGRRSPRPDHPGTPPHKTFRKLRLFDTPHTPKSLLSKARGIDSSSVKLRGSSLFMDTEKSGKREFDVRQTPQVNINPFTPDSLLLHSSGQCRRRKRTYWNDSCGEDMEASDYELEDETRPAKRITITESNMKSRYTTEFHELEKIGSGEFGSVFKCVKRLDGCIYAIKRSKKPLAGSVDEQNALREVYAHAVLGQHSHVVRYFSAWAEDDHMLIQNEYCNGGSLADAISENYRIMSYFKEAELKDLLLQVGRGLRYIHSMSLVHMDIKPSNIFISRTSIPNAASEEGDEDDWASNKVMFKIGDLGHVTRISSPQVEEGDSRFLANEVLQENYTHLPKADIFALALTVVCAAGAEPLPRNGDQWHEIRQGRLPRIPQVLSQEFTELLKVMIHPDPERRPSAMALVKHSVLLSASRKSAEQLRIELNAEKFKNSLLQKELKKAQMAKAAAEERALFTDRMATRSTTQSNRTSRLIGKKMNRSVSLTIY
T5 sequence (Q96SW2 whole entry): as the sequence (Q96SW2 whole entry) above
T5 sequence (Q16531 whole entry partner): as the sequence (Q16531 whole entry partner) above
T1 sequence (P48729 whole entry): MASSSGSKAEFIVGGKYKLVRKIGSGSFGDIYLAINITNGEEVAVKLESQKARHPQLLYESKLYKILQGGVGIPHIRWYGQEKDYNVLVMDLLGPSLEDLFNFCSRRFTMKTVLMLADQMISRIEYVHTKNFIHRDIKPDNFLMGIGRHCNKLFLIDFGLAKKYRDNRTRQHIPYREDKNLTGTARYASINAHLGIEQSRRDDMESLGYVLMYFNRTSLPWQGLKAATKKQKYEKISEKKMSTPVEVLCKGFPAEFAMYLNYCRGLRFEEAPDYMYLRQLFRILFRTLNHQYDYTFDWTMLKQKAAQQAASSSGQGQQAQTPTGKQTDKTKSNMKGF
T1 sequence (Q96SW2 whole entry): as the sequence (Q96SW2 whole entry) above
T1 sequence (Q16531 whole entry partner): as the sequence (Q16531 whole entry partner) above

Row | SMILES | CK1α substrate protein remaining % (CK1α; [4]) | IKZF 1 substrate protein remaining % (IKZF1; [4]) | IKZF2 substrate protein remaining % (IKZF2; [4]) | IKZF3 substrate protein remaining % (IKZF3; [4]) | Wee1 substrate protein remaining % (WEE1; [4]) | GSPT1 substrate protein remaining % (GSPT1; [4]) | inhibition at 0.5 µM [1] | inhibition at 2 µM [1] | inhibition at 0.01 µM [2] | inhibition at 0.5 µM [2] | inhibition at 0.01 µM [3] | inhibition at 0.5 µM [3] | CK1α substrate protein remaining % (CK1α; [5]) | IKZF 1 substrate protein remaining % (IKZF1; [5]) | IKZF2 substrate protein remaining % (IKZF2; [5]) | IKZF3 substrate protein remaining % (IKZF3; [5]) | Wee1 substrate protein remaining % (WEE1; [5]) | GSPT1 substrate protein remaining % (GSPT1; [5])
1 | O=C1CCC(N2Cc3c(CN4C5CCC4CN(c4cccc(Cl)c4Cl)C5)cccc3C2=S)C(=O)N1 (stereo not drawn) [GT-08471, 3-(4-((3-(2,3-dichlorophenyl)-3,8-diazabicyclo[3.2.1]octan-8-yl)methyl)-1-thioxoisoindolin-2-yl)piperidine-2,6-dione] | B (80%< substrate protein remaining %≤ 100%) | B (80%< substrate protein remaining %≤ 100%) | B (80%< substrate protein remaining %≤ 100%) | B (80%< substrate protein remaining %≤ 100%) | B (80%< substrate protein remaining %≤ 100%) | A (0% ≤ substrate protein remaining % ≤ 80%) | 30 to 40% | 60 to 80% | 40 to 50% | 40 to 50% | 40 to 60% | 40 to 60% |  |  |  |  |  | 
2 | O=C1CCC(N2Cc3cc(CN4CCCN(c5cccc(Cl)c5Cl)CC4)ccc3C2=S)C(=O)N1 (stereo not drawn) [GT-08481, 3-(5-((4-(2,3-dichlorophenyl)-1,4-diazepan-1-yl)methyl)-1-thioxoisoindolin-2-yl)piperidine-2,6-dione] | B (80%< substrate protein remaining %≤ 100%) | B (80%< substrate protein remaining %≤ 100%) | B (80%< substrate protein remaining %≤ 100%) | B (80%< substrate protein remaining %≤ 100%) | B (80%< substrate protein remaining %≤ 100%) | A (0% ≤ substrate protein remaining % ≤ 80%) | 60 to 80% | 80 to 100% | 30 to 40% | 70 to 80% | 18 to 25% | 60 to 80% |  |  |  |  |  | 
3 | O=C1CCC(N2Cc3c(CN4CCN(c5cc(Cl)ccc5Cl)CC4)cccc3C2=S)C(=O)N1 (stereo not drawn) [GT-08501, 3-(4-((4-(2,5-dichlorophenyl)piperazin-1-yl)methyl)-1-thioxoisoindolin-2-yl)piperidine-2,6-dione] | B (80%< substrate protein remaining %≤ 100%) | A (0% ≤ substrate protein remaining % ≤ 80%) | A (0% ≤ substrate protein remaining % ≤ 80%) | B (80%< substrate protein remaining %≤ 100%) | A (0% ≤ substrate protein remaining % ≤ 80%) | A (0% ≤ substrate protein remaining % ≤ 80%) | 30 to 40% | 53 to 60% | 50 to 60% | 60 to 70% | 40 to 60% | 40 to 60% |  |  |  |  |  | 
4 | O=C1CCC(N2Cc3cc(CN4CCN(c5ccc(Br)cc5)CC4)ccc3C2=S)C(=O)N1 (stereo not drawn) [GT-08600, 3-(5-((4-(4-bromophenyl)piperazin-1-yl)methyl)-1-thioxoisoindolin-2-yl)piperidine-2,6-dione] | B (80%< substrate protein remaining %≤ 100%) | B (80%< substrate protein remaining %≤ 100%) | B (80%< substrate protein remaining %≤ 100%) | B (80%< substrate protein remaining %≤ 100%) | B (80%< substrate protein remaining %≤ 100%) | A (0% ≤ substrate protein remaining % ≤ 80%) | 53 to 60% | 80 to 100% | 30 to 40% | 60 to 70% | 40 to 60% | 80 to 100% |  |  |  |  |  | 
5 | O=C1CCC(N2Cc3cc(CN4CCC(c5ccccc5F)CC4)ccc3C2=S)C(=O)N1 (stereo not drawn) [GT-08620, 3-(5-((4-(2-fluorophenyl)piperidin-1-yl)methyl)-1-thioxoisoindolin-2-yl)piperidine-2,6-dione] | B (80%< substrate protein remaining %≤ 100%) | B (80%< substrate protein remaining %≤ 100%) | A (0% ≤ substrate protein remaining % ≤ 80%) | B (80%< substrate protein remaining %≤ 100%) | B (80%< substrate protein remaining %≤ 100%) | A (0% ≤ substrate protein remaining % ≤ 80%) | 53 to 60% | 80 to 100% | 40 to 50% | 70 to 80% | 30 to 40% | 60 to 80% |  |  |  |  |  | 
6 | O=C1CCC(N2Cc3c(CN4CCC(c5ccon5)CC4)cccc3C2=S)C(=O)N1 (stereo not drawn) [GT-08817, 3-(4-((4-(isoxazol-3-yl)piperidin-1-yl)methyl)-1-thioxoisoindolin-2-yl)piperidine-2,6-dione] | B (80%< substrate protein remaining %≤ 100%) | B (80%< substrate protein remaining %≤ 100%) | B (80%< substrate protein remaining %≤ 100%) | B (80%< substrate protein remaining %≤ 100%) | A (0% ≤ substrate protein remaining % ≤ 80%) | B (80%< substrate protein remaining %≤ 100%) | 53 to 60% | 80 to 100% | 20 to 30% | 40 to 50% | 40 to 60% | 30 to 40% |  |  |  |  |  | 
7 | O=C1CCC(N2Cc3c(CN4CC=C(c5ncnc6sc(-c7ccccc7)cc56)CC4)cccc3C2=S)C(=O)N1 (stereo not drawn) [GT-08956, 3-(4-((4-(6-phenylthieno[2,3-d]pyrimidin-4-yl)-3,6-dihydropyridin-1(2H)-yl)methyl)-1-thioxoisoindolin-2-yl)piperidine-2,6-dione] |  |  |  |  |  |  | 53 to 60% | 60 to 80% | 20 to 30% | 40 to 50% | 18 to 25% | 40 to 60% | B (80%< substrate protein remaining %≤ 100%) | B (80%< substrate protein remaining %≤ 100%) | B (80%< substrate protein remaining %≤ 100%) | B (80%< substrate protein remaining %≤ 100%) | A (0% ≤ substrate protein remaining % ≤ 80%) | A (0% ≤ substrate protein remaining % ≤ 80%)
8 | O=C1CCC(N2Cc3cc(CN4CCN(c5cccc(Cl)n5)CC4)ccc3C2=S)C(=O)N1 (stereo not drawn) [GT-09215, 3-(5-((4-(6-chloropyridin-2-yl)piperazin-1-yl)methyl)-1-thioxoisoindolin-2-yl)piperidine-2,6-dione] | B (80%< substrate protein remaining %≤ 100%) | B (80%< substrate protein remaining %≤ 100%) | B (80%< substrate protein remaining %≤ 100%) | B (80%< substrate protein remaining %≤ 100%) | B (80%< substrate protein remaining %≤ 100%) | A (0% ≤ substrate protein remaining % ≤ 80%) | 60 to 80% | 80 to 100% | 30 to 40% | 50 to 60% | 40 to 60% | 80 to 100% |  |  |  |  |  | 
